Data reported in PubChem BioAssay AID1259407 (Chemical Carcinogenesis Research Information System (CCRIS), 2018).
The source made the active and inactive calls. No rule for the calls is given here.

System: CCRIS mutagenicity, Ames/micronucleus/aberration tests
Experiment: CCRIS mutagenicity studies
[1] = Test System: AMES SALMONELLA TYPHIMURIUM, Strain/Indicator: TA98, Metabolic Activation: NONE, Method: STANDARD PLATE
[2] = Test System: AMES SALMONELLA TYPHIMURIUM, Strain/Indicator: TA98, Metabolic Activation: RAT, LIVER, S-9, AROCLOR 1254, Method: STANDARD PLATE
[3] = Test System: AMES SALMONELLA TYPHIMURIUM, Strain/Indicator: TA100, Metabolic Activation: NONE, Method: STANDARD PLATE
[4] = Test System: AMES SALMONELLA TYPHIMURIUM, Strain/Indicator: TA100, Metabolic Activation: RAT, LIVER, S-9, AROCLOR 1254, Method: STANDARD PLATE
[5] = Test System: AMES SALMONELLA TYPHIMURIUM, Strain/Indicator: TA1535, Metabolic Activation: NONE, Method: STANDARD PLATE
[6] = Test System: AMES SALMONELLA TYPHIMURIUM, Strain/Indicator: TA1535, Metabolic Activation: RAT, LIVER, S-9, AROCLOR 1254, Method: STANDARD PLATE
[7] = Test System: AMES SALMONELLA TYPHIMURIUM, Strain/Indicator: TA1537, Metabolic Activation: NONE, Method: STANDARD PLATE
[8] = Test System: AMES SALMONELLA TYPHIMURIUM, Strain/Indicator: TA1537, Metabolic Activation: RAT, LIVER, S-9, AROCLOR 1254, Method: STANDARD PLATE
[9] = Test System: AMES SALMONELLA TYPHIMURIUM, Strain/Indicator: TA1538, Metabolic Activation: NONE, Method: STANDARD PLATE
[10] = Test System: AMES SALMONELLA TYPHIMURIUM, Strain/Indicator: TA1538, Metabolic Activation: RAT, LIVER, S-9, AROCLOR 1254, Method: STANDARD PLATE
[11] = Test System: AMES SALMONELLA TYPHIMURIUM, Strain/Indicator: TA98, Metabolic Activation: RAT, LIVER, S-9, AROCLOR 1254, Method: PREINCUBATION
[12] = Test System: AMES SALMONELLA TYPHIMURIUM, Strain/Indicator: TA102, Metabolic Activation: NONE, Method: STANDARD PLATE

C=CC(=O)OCCCCCOC(=O)C=C
mutagenic call [1]: inactive; negative | mutagenic call [2]: inactive; negative | mutagenic call (Test System: AMES SALMONELLA TYPHIMURIUM, Strain/Indicator: TA98, Metabolic Activation: RAT, LIVER, S-9, SODIUM PHENOBARBITAL, Method: STANDARD PLATE): inactive; negative | mutagenic call [3]: inactive; negative | mutagenic call [4]: inactive; negative | mutagenic call (Test System: AMES SALMONELLA TYPHIMURIUM, Strain/Indicator: TA100, Metabolic Activation: RAT, LIVER, S-9, SODIUM PHENOBARBITAL, Method: STANDARD PLATE): inactive; negative | mutagenic call [5]: inactive; negative | mutagenic call [6]: inactive; negative | mutagenic call (Test System: AMES SALMONELLA TYPHIMURIUM, Strain/Indicator: TA1535, Metabolic Activation: RAT, LIVER, S-9, SODIUM PHENOBARBITAL, Method: STANDARD PLATE): inactive; negative | mutagenic call [7]: inactive; negative | mutagenic call [8]: inactive; negative | mutagenic call (Test System: AMES SALMONELLA TYPHIMURIUM, Strain/Indicator: TA1537, Metabolic Activation: RAT, LIVER, S-9, SODIUM PHENOBARBITAL, Method: STANDARD PLATE): inactive; negative | mutagenic call [9]: inactive; negative | mutagenic call [10]: inactive; negative | mutagenic call (Test System: AMES SALMONELLA TYPHIMURIUM, Strain/Indicator: TA1538, Metabolic Activation: RAT, LIVER, S-9, SODIUM PHENOBARBITAL, Method: STANDARD PLATE): inactive; negative

N#Cc1ccc2nc(N)[nH]c2c1
mutagenic call [11]: active; positive | mutagenic call (Test System: AMES SALMONELLA TYPHIMURIUM, Strain/Indicator: TA100, Metabolic Activation: RAT, LIVER, S-9, AROCLOR 1254, Method: PREINCUBATION): active; positive

CC1c2ccccc2-c2ccccc21
mutagenic call [4]: active; positive

CC(C)CCCC(C)CCCC(C)CCCCC(C)CCCC(C)CCCC(C)C (stereo not given)
mutagenic call (Test System: Ames Salmonella typhimurium, Strain/Indicator: TA98, Metabolic Activation: None, Method: Preincubation): inactive; negative | mutagenic call (Test System: Ames Salmonella typhimurium, Strain/Indicator: TA98, Metabolic Activation: Rat, Liver, S9, Phenobarbital and 5,6-benzoflavone, Method: Preincubation): inactive; negative | mutagenic call (Test System: Ames Salmonella typhimurium, Strain/Indicator: TA100, Metabolic Activation: None, Method: Preincubation): inactive; negative | mutagenic call (Test System: Ames Salmonella typhimurium, Strain/Indicator: TA100, Metabolic Activation: Rat, Liver, S9, Phenobarbital and 5,6-benzoflavone, Method: Preincubation): inactive; negative | mutagenic call (Test System: Ames Salmonella typhimurium, Strain/Indicator: TA1535, Metabolic Activation: None, Method: Preincubation): inactive; negative | mutagenic call (Test System: Ames Salmonella typhimurium, Strain/Indicator: TA1535, Metabolic Activation: Rat, Liver, S9, Phenobarbital and 5,6-benzoflavone, Method: Preincubation): inactive; negative | mutagenic call (Test System: Ames Salmonella typhimurium, Strain/Indicator: TA1537, Metabolic Activation: None, Method: Preincubation): inactive; negative | mutagenic call (Test System: Ames Salmonella typhimurium, Strain/Indicator: TA1537, Metabolic Activation: Rat, Liver, S9, Phenobarbital and 5,6-benzoflavone, Method: Preincubation): inactive; negative | mutagenic call (Test System: E. coli, Strain/Indicator: WP2uvrA/pKM101, Metabolic Activation: None, Method: Preincubation): inactive; negative | mutagenic call (Test System: E. coli, Strain/Indicator: WP2uvrA/pKM101, Metabolic Activation: Rat, Liver, S9, Phenobarbital and 5,6-benzoflavone, Method: Preincubation): inactive; negative

CC1(C)CCCC(C)(C)N1[O]
mutagenic call [1]: inactive; negative | mutagenic call [3]: inactive; negative | mutagenic call [12]: inactive; negative

C\C=C(/C=C(C)/C=C(C)/C=C/C=C(\C)C(=O)[C@]12O[C@H]1[C@@](O)(CCO)NC2=O)C(=O)OC
mutagenic call (Test System: AMES SALMONELLA TYPHIMURIUM, Strain/Indicator: TA97A, Metabolic Activation: NONE, Method: STANDARD PLATE): inactive; negative | mutagenic call (Test System: AMES SALMONELLA TYPHIMURIUM, Strain/Indicator: TA97A, Metabolic Activation: RAT, LIVER, S-9, AROCLOR 1254, Method: STANDARD PLATE): active; positive | mutagenic call [1]: inactive; negative | mutagenic call [2]: active; positive | mutagenic call (Test System: AMES SALMONELLA TYPHIMURIUM, Strain/Indicator: TA100, Metabolic Activation: NONE, Method: PREINCUBATION): active; positive | mutagenic call [3]: inactive; negative | mutagenic call (Test System: AMES SALMONELLA TYPHIMURIUM, Strain/Indicator: TA100, Metabolic Activation: RAT, LIVER, MICROSOMES, PHENOBARBITAL, Method: PREINCUBATION): active; positive | mutagenic call [4]: active; positive | mutagenic call [12]: inactive; negative | mutagenic call (Test System: AMES SALMONELLA TYPHIMURIUM, Strain/Indicator: TA102, Metabolic Activation: RAT, LIVER, S-9, AROCLOR 1254, Method: STANDARD PLATE): inactive; negative

Nc1cc(N)cc(Cl)c1
mutagenic call (End Point: IN VITRO CHROMOSOMAL ABERRATIONS, Test System: CHL CELLS, Metabolic Activation: RAT, LIVER, S-9, SODIUM PHENOBARBITAL AND 5,6-BENZOFLAVONE): active; positive (structural changes) | mutagenic call (Test System: UDS RODENT HEPATOCYTES, Strain/Indicator: THY INCORP (NON-S-PHASE), Metabolic Activation: NONE, Method: AUTORADIOGRAPHY): active; positive

Nc1ccc(N=Nc2ccc(N)cc2)cc1
mutagenic call (Test System: AMES SALMONELLA TYPHIMURIUM, Strain/Indicator: TA98, Metabolic Activation: HAMSTER, LIVER, S-9, AROCLOR 1254, Method: STANDARD PLATE): active; positive | mutagenic call [1]: inactive; negative | mutagenic call [11]: active; positive | mutagenic call [2]: active; positive | mutagenic call [3]: inactive; negative | mutagenic call [4]: inactive; negative | mutagenic call [5]: inactive; negative | mutagenic call [6]: inactive; negative | mutagenic call [7]: inactive; negative | mutagenic call [8]: inactive; negative | mutagenic call [9]: inactive; negative | mutagenic call [10]: active; positive
